Experimental data: ChEMBL document CHEMBL3751788, “The new facile and straightforward method for the synthesis of 4H-1,2,3-thiadiazolo[5,4-b]indoles and determination of their antiproliferative activity” (Eur J Med Chem, 2016)
pEC50: −log10 of the molar value. Activity calls are given as the source filed them. No cut-off for these calls is given here.

Legend:
HT-29 [1] = test: Antiproliferative activity against human HT-29 cells after 96 hrs by MTT assay; assay type: functional, cell-based; conditions: HT-29, 96 h
K562 [2] = test: Induction of apoptosis in human K562 cells after 48 hrs at 50 uM by annexin-V-FITC/PI staining based flow cytometry; assay type: functional, cell-based
Jurkat [3] = test: Induction of apoptosis in human Jurkat cells assessed as increase in cleaved PARP-1 level at 50 and 100 uM after 48 hrs by immunoblotting; assay type: functional, cell-based
HepG2 = test: Antiproliferative activity against human HepG2 cells after 48 hrs by MTT assay; assay type: functional, cell-based; conditions: HepG2, 48 h
Jurkat [4] = test: Induction of reactive oxygen species in human Jurkat cells at >= 50 uM after 48 hrs by flow cytometry analysis; assay type: functional, cell-based
Mus musculus = organism: Mus musculus; test: Induction of apoptosis in C57BL/6 mouse liver mitochondrial assessed as cytochrome c release after 1 hr by immunoblotting method; assay type: functional; conditions: Mitochondria
K562 [5] = test: Induction of reactive oxygen species in human K562 cells at >= 50 uM after 48 hrs by flow cytometry analysis; assay type: functional, cell-based
HT-29 [6] = test: Antiproliferative activity against human HT-29 cells after 72 hrs by MTT assay; assay type: functional, cell-based; conditions: HT-29, 72 h
Jurkat [7] = test: Induction of apoptosis in human Jurkat cells after 48 hrs at 50 uM by annexin-V-FITC/PI staining based flow cytometry; assay type: functional, cell-based
Jurkat [8] = test: Induction of apoptosis in human Jurkat cells assessed as late apoptotic cells at 25 uM after 48 hrs by annexin-V-FITC/PI staining based flow cytometry; assay type: functional, cell-based
Jurkat [9] = test: Induction of reactive oxygen species in human Jurkat cells after 48 hrs by flow cytometry analysis; assay type: functional, cell-based
MCF7 = test: Antiproliferative activity against human MCF7 cells after 48 hrs by MTT assay; assay type: functional, cell-based; conditions: MCF7, 48 h
Jurkat [10] = test: Induction of apoptosis in human Jurkat cells assessed as early apoptotic cells at 25 uM after 48 hrs by annexin-V-FITC/PI staining based flow cytometry; assay type: functional, cell-based
HEK293 [11] = test: Antiproliferative activity against human HEK293 cells incubated with 2000 cells per well after 48 hrs by MTT assay; assay type: cell-based; conditions: HEK293, 48 h
K562 [12] = test: Induction of reactive oxygen species in human K562 cells after 48 hrs by flow cytometry analysis; assay type: functional, cell-based
K562 [13] = test: Induction of apoptosis in human K562 cells assessed as late apoptotic cells at 25 uM after 48 hrs by annexin-V-FITC/PI staining based flow cytometry; assay type: functional, cell-based
K562 [14] = test: Induction of apoptosis in human K562 cells assessed as early apoptotic cells at 25 uM after 48 hrs by annexin-V-FITC/PI staining based flow cytometry; assay type: functional, cell-based
Jurkat [15] = test: Induction of apoptosis in human Jurkat cells assessed as early apoptotic cells at 10 uM after 48 hrs by annexin-V-FITC/PI staining based flow cytometry; assay type: functional, cell-based
HEK293 [16] = test: Antiproliferative activity against human HEK293 cells incubated with 3000 cells per well after 48 hrs by MTT assay; assay type: cell-based; conditions: HEK293, 48 h
K562 [17] = test: Induction of apoptosis in human K562 cells assessed as early apoptotic cells at 10 uM after 48 hrs by annexin-V-FITC/PI staining based flow cytometry; assay type: functional, cell-based
Jurkat [18] = test: Induction of apoptosis in human Jurkat cells assessed as increase in cleaved PARP-1 level at 20 uM after 48 hrs by immunoblotting; assay type: functional, cell-based

pEC50 (HT-29 [1])	pEC50 (HT-29 [6])	pEC50 (MCF7)	SMILES	Activity (Mus musculus)	Activity (Jurkat [9])	pEC50 (HEK293 [11])	Activity (K562 [12])	further results
4.28	4.31		O=C(c1ccc(Cl)cc1)n1c2ccccc2c2nnsc21	inactive				Activity (K562 [2]): Active; Activity (Jurkat [3]): Active; pEC50 (HepG2): 4.22; Activity (Jurkat [4]): Active; Activity (K562 [5]): Active; Activity (Jurkat [7]): Active
4.47	4.58	4.51	Clc1ccc2[nH]c3snnc3c2c1		Dose-dependent effect	4.61	Dose-dependent effect	Activity (Jurkat [8]): Active; Activity (Jurkat [10]): Active; Activity (K562 [13]): Active; Activity (K562 [14]): Active
5.16	5.10	4.89	COc1ccc(S(=O)(=O)n2c3ccccc3c3nnsc32)cc1	inactive	Dose-dependent effect	4.82	Dose-dependent effect	Activity (Jurkat [15]): Active; pEC50 (HEK293 [16]): 4.91; Activity (K562 [17]): Active; Activity (Jurkat [18]): Active
